# According to patent publication US20050227995A1, “Phenyl sulfoxides and phenyl sulfones” (priority 2002, published 2005):
# System: Aβ release from human cell lines (H4, HEK293) stably overexpressing human APP695 with Swedish double mutation
# Test: Determination of the inhibition of A-beta release in cell culture (IGEN analyzer detection)
# Assay type: cell-based
# Conditions: H4/HEK293 cells overexpressing human APP695 Swedish mutant; supernatant analyzed after 16 h; 0.5% DMSO
# Description: Determination of the Inhibition of A-Beta Release in Cell Culture
# In order to be able to measure the inhibition of Aβ release, human cell lines (H4, HEK293) which stably overexpress the 695 amino acid-long, neuronal splice variant of human APP were generated. In order to increase the generated Aβ amount further, in addition a “Swedish” familiar Alzheimer's double mutation in which the lysine and methionine residues respectively at positions 595 and 596 of the molecule APP695 are replaced by the amino acids asparagine and leucine was introduced. The cells were cultivated in Dulbecco's modified Eagles medium (DMEM, with 4500 mg/l glucose; 110 mg/l sodium pyruvate); 5% by volume fetal calf serum (FCS); 1% nonessential amino acids) to which the geniticin G418 selection marker had been added [all cell culture methods were carried out by standard methods; Sambrook, J., Fritsch, E. F., and Maniatis, T. (1989), Molecular cloning: A laboratory manual. Cold Spring Harbour Laboratory Press]. In order to test the effect of substances on the inhibition of APP processing, about 20 000 cells were diluted in a 96 multititer plate. The next day, the culture medium was removed and replaced by biotin- and serum-free medium, in which the substances were diluted to reach a concentration of 10 μM with a dimethyl sulfoxide (DMSO) content of 0.5%. 0.5% DMSO served as control. For substances showing inhibition of the Aβ generation, additionally dose-effect relations were investigated by using different concentrations. After 16 h, the supernatant was removed and analyzed.
# b) Detection of Aβ with the IGEN Analyzer
# The total amount of Aβ was detected using the following components: 50 μl of cell culture supernatant were mixed with 25 μl of biotinylated antibody 4G8 (recognizes amino acid 17-25 of Aβ), 25 μl of ruthenium complex-labeled antibody 6E10 (recognizes the N terminus of Aβ) and 50 μl of magnetic streptavidin-coupled beads. Aβ40 was detected by using the following components: 50 μl of cell culture supernatant were mixed with 25 μl of biotinylated antibody G2-10 (recognizes the C terminus of Aβ40), 25 μl of ruthenium complex-labeled antibody W02 (recognizes the N terminus of Aβ), and 50 μl of magnetic streptavidin-coupled beads. In parallel, serial dilutions were made with synthetic A040. The samples were shaken at room temperature and then measured using an IGEN analyzer. Typically, each sample was measured three times in at least two independent experiments. The antibodies and solutions used were prepared according to the instructions of the manufacturer of the analyzer, IGEN, Inc. (Gaitersburg, Md., USA). The measurement was likewise carried out as stated by the manufacturer.
row,SMILES,IC50 [nM]
1,"C[C@H](COC(=O)N1CCC(O)CC1)[C@@H](c1cc(F)ccc1F)S(=O)(=O)c1ccc(Cl)cc1 (single isomer, unassigned) [Example 43]",10 to 100
2,"CC(COC(=O)N1CCNC(=O)C1)C(c1cc(F)ccc1F)S(=O)(=O)c1ccc(Br)cc1 (single isomer, unassigned) [Example 100]",10 to 100
3,"C[C@H](COC(=O)N1CCN(C)CC1)[C@@H](c1cc(F)ccc1F)S(=O)(=O)c1ccc(Cl)cc1 (single isomer, unassigned) [Example 95]",10 to 100
4,"C[C@H](COC(=O)N1CCC(CCO)CC1)[C@@H](c1cc(F)ccc1F)S(=O)(=O)c1ccc(Cl)cc1 (single isomer, unassigned) [Example 42]",10 to 100
